Source: patent US20260021085A1, “CYCLOALKYL CARBOXYLIC ACID DERIVATIVES AS INHIBITORS OF GLYCOGEN SYNTHASE 1 (GYS1) AND METHODS OF USE THEREOF” (Maze Therapeutics, Inc., priority 2022, published 2026)

What was measured:
human GYS1 = human GYS1 (Homo sapiens (Human), UniProt P13807); assay: GYS1 coupled enzyme assay (PK/LDH); format: biochemical; settings: recombinant hGYS1/GN1 protein; geometric mean of at least 2 assay runs
From the text: The GYS1 coupled enzyme assay is a kinetic biochemical assay that indirectly quantifies the rate of glycogen synthesis by coupling the conversion of GYS1 substrate UDP-glucose into UDP with downstream enzymatic reactions. UDP is released from UDP-glucose as glucose monomers are linked into the growing glycogen strand by GYS1. The coupled assay then proceeds with pyruvate kinase utilizing UDP and phospho (enol) pyruvate (PEP) to form pyruvate. Lactate dehydrogenase then converts pyruvate and NADH into lactate and NAD+. Oxidation of NADH to NAD+ can be measured continuously with a plate reader by quantifying the decrease in NADH absorbance at 340 nm over time.
Compounds that inhibit the hGYS1 enzyme and, subsequently, the downstream conversion of NADH to NAD+, were tested using assay ready plates (black, clear bottom 384 well plates) in a final DMSO reaction volume of 2.5% DMSO. The Assay Buffer contained 50 mM Tris pH 7.5, 2 mM MgCl2, and 100 mM KCl. Fresh stocks of BSA at a final concentration of 0.02% and TCEP at 1 mM were added before splitting buffer into hGYS1 buffer and substrate buffer. To the hGYS1 buffer, rabbit liver glycogen was added at a final concentration of 0.2% glycogen. Glucose-6-Phosphate was added at 1 mM, recombinant hGYS1/GN1 protein was added at 50 nM to the substrate buffer, phosphoenolpyruvate (PEP) was added at 2 mM, UDP-Glucose was added at 0.8 mM, NADH) was added at 0.6 mM, and Pyruvate Kinase/Lactate Dehydrogenase was added at 20 units/mL. The reaction was initiated by mixing hGYS1 buffer and substrate buffer at a 1:1 ratio. Both buffers were plated using a liquid dispensing device with hGYS1 buffer plated first followed by the substrate buffer. Plates were spun briefly to eliminate air bubbles and are immediately read in continuous mode at an absorbance of 340 nm, for 10 time points in one-minute increments, for a total of 10 minutes. The slope from these 10 time points was normalized to the positive and negative control wells.
(§1) Unless otherwise specified, IC50 values are reported as the geometric mean of at least 2 assay runs on separate days. Each run represents the average of a technical replicate, where each compound was assayed twice in the same plate.

[1] = biological target: hGYS1 enzyme, glycogen synthesis in HeLa cells (Homo sapiens (Human), UniProt P13807); assay: GYS1 cell based assay (glycogen synthesis in HeLa cells, Glucose-glo); settings: starved HeLa cells, 24 h incubation; geometric mean of at least 2 assay runs; read-out: Cellular IC50
From the text: The GYS1 cell based assay is a bioluminescent assay that quantifies the glucose resulting from glycogen digestion; the quantified glucose is an indirect measure of GYS1 glycogen synthesis. Newly synthesized glycogen is digested using Glucoamylase; the resulting glucose is quantified by using the Glucose-glo assay kit from Promega. Glucose-glo works by coupling glucose oxidation and NADH production with a bioluminescent system that is activated with NADH. Glucose is oxidized by Glucose dehydrogenase and the reaction reduces NAD+ to NADH; NADH activates Reductase which reduces a pro-luciferin Reductase Substrate to luciferin. Luciferin is detected in a luciferase reaction using Ultra-Glo rLuciferase and ATP, and the luminesce produced is proportional to the glucose in the sample. The luminescence is measured as a single point read in a plate reader.
Compounds that inhibit the hGYS1 enzyme and, subsequently, the glycogen synthesis in cells, were tested using assay ready plates (white, clear bottom 384 well plates) in a final DMSO reaction volume of 1% DMSO. Compounds in the assay ready plates were mixed with media with no additives, except for 20 mM glucose prior to cell addition. HeLa cells were starved in media with no additives, except for 1× Glutamax for 24 h. Starved HeLa cells were plated, in a 1:1 ratio to the media in the assay ready plate and incubated for 24 h at 37° C. and 5% CO2. Cells were washed in 1×PBS buffer and lysed in lysis buffer containing 50% 1×PBS and 25% 0.3 N HCl of the final volume in the well or reaction volume; cells were incubated with lysis buffer for 10 minutes and quenched with the remaining 25% of the reaction volume that consisted of 450 mM Tris pH 8.0. Lysates were mixed in a 1:1 ratio with Glucoamylase in 100 mM Sodium Acetate buffer, pH 5.3; the mixture was incubated for 1 h at 37° C. The digested lysate was mixed in a 1:1 ratio with Glucose-glo detection mixture as per vendor recommendations (Luciferase detection buffer, Reductase, Reductase substrate, Glucose dehydrogenase, and NAD) in read-out plates (solid white 384-well plates) and incubated for 1 h at RT. The plates were read using a plate reader with luminescence capabilities. Each compound concentration Relative Luminescence Unit (RLU) was averaged and normalized to the average RLU of the positive and negative controls to obtain a percentage inhibition. The normalized data vs. concentration was plotted; to determine the half-maximal concentration (IC50), the Levenberg-Marquardt algorithm was used to fit a Hill equation to the dose response data.
as §1, with “2 assay runs on separate days. […] Unless otherwise specified, IC50 values are reported as the geometric mean of at least two” for “2”

hGYS1 enzyme, glycogen synthesis in HeLa cells, sequence (P13807 whole entry): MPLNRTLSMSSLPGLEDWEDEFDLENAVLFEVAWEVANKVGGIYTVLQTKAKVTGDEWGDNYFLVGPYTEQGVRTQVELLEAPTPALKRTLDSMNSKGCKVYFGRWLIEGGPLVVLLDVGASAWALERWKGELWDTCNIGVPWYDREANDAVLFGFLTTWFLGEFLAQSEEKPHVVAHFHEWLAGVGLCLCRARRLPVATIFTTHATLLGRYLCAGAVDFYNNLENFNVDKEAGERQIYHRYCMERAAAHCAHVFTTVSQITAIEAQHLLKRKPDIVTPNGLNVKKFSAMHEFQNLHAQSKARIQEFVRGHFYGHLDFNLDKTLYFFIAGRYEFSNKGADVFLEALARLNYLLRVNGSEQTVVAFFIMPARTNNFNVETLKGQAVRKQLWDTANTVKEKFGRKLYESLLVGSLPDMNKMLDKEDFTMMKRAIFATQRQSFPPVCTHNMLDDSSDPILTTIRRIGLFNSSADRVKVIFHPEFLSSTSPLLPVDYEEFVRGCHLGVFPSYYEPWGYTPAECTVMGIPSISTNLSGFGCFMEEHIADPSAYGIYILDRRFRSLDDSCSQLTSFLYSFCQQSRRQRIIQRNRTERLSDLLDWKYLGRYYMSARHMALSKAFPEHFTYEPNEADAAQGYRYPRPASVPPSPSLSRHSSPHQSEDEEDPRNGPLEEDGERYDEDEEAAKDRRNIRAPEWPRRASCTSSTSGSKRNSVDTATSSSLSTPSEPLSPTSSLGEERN
human GYS1, sequence (P13807 whole entry): as above
human GYS1, sequence (P46976 whole entry partner): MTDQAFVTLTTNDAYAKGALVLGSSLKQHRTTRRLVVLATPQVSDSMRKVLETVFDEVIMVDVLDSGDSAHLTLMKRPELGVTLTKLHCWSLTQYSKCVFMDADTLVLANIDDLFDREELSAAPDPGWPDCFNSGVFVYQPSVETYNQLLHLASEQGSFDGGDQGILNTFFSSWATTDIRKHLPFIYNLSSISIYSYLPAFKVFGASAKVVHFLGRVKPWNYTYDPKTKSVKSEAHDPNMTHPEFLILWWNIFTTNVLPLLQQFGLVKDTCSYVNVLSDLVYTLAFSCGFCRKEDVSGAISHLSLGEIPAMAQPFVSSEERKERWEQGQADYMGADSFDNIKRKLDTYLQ

SMILES | IC50 (human GYS1) [µM] | IC50 [1] [µM]
CC(C)c1ccc([C@@H](NC(=O)C2CC(F)CC2C(=O)O)c2ccccc2)cc1 (single isomer, unassigned) [Compound 25, (1S or 1R,2R or 2S,4R or 4S)-4-fluoro-2-(((S)-(4-isopropylphenyl)(phenyl)methyl)carbamoyl)cyclopentane-1-carboxylic acid] | 1.15 | 24.5
CC(C)c1ccc([C@@H](NC(=O)C2CCC(C(=O)O)C2)c2ccccc2)cc1 (single isomer, unassigned) [Compound 33, (1S or 1R,3R or 3S)-3-(((S)-(4-isopropylphenyl)(phenyl)methyl)carbamoyl)cyclopentane-1-carboxylic acid] | 3.13 | –
CC(C)c1ccc([C@@H](NC(=O)C2CC(O)CC2C(=O)O)c2ccccc2)cc1 (single isomer, unassigned) [Compound 16, (1S or 1R,2R or 2S,4R or 4S)-4-hydroxy-2-(((S)-(4-isopropylphenyl)(phenyl)methyl)carbamoyl)cyclopentane-1-carboxylic acid] | 0.836 | > 100
CC(C)c1ccc([C@@H](NC(=O)[C@@H]2CCC[C@@H]2C(=O)O)c2cccc3[nH]c(=O)oc23)cc1 [Compound 9, (1S,2R)-2-(((R)-(4-isopropylphenyl)(2-oxo-2,3-dihydrobenzo[d]oxazol-7-yl)methyl)carbamoyl)cyclopentane-1-carboxylic acid] | 0.879 | > 100
CC1(c2ccc([C@@H](NC(=O)[C@@H]3CCC[C@@H]3C(=O)O)c3ccccc3)cc2)CC1 [Compound 14, (1S,2R)-2-(((S)-(4-(1-methylcyclopropyl)phenyl)(phenyl)methyl)carbamoyl)cyclopentane-1-carboxylic acid] | 1.01 | > 60.8
CC(C)c1ccc([C@@H](NC(=O)[C@@H]2CCC[C@@H]2C(=O)O)c2cccc(-c3ccno3)c2)nc1F [Compound 3, (1S,2R)-2-(((S)-(6-fluoro-5-isopropylpyridin-2-yl)(3-(isoxazol-5-yl)phenyl)methyl)carbamoyl)cyclopentane-1-carboxylic acid] | 0.63 | –
CC(C)c1ccc([C@@H](NC(=O)C2CC(NC(=O)OC(C)(C)C)CC2C(=O)O)c2ccccc2)cc1 (single isomer, unassigned) [Compound 11, (1S or 1R,2R or 2S,4R or 4S)-4-((tert-butoxycarbonyl)amino)-2-(((S)-(4-isopropylphenyl)(phenyl)methyl)carbamoyl)cyclopentane-1-carboxylic acid] | 1.94 | > 100
CC(C)c1ccc([C@@H](NC(=O)[C@@H]2CCC[C@@H]2C(=O)O)c2ccn[nH]2)cc1 [Compound 32, (1S,2R)-2-(((R)-(4-isopropylphenyl)(1H-pyrazol-5-yl)methyl)carbamoyl)cyclopentane-1-carboxylic acid] | 2.39 | > 100
CC(C)c1ccc([C@@H](NC(=O)[C@@H]2CCC[C@@H]2C(=O)O)c2cccc(-c3cnco3)c2)nc1F [Compound 2, (1S,2R)-2-(((S)-(6-fluoro-5-isopropylpyridin-2-yl)(3-(oxazol-5-yl)phenyl)methyl)carbamoyl)cyclopentane-1-carboxylic acid] | 0.426 | –
O=C(O)[C@H]1CCC[C@H]1C(=O)N[C@@H](c1ccccc1)c1ccc(C2CC2)cn1 [Compound 12, (1S,2R)-2-(((S)-(5-cyclopropylpyridin-2-yl)(phenyl)methyl)carbamoyl)cyclopentane-1-carboxylic acid] | 1.73 | > 65.8
CC(C)c1ccc([C@@H](NC(=O)C2CC(O)CC2C(=O)O)c2ccccc2)cc1 (single isomer, unassigned) [Compound 21, (1S or 1R,2R or 2S,4S or 4R)-4-hydroxy-2-(((S)-(4-isopropylphenyl)(phenyl)methyl)carbamoyl)cyclopentane-1-carboxylic acid] | 1.96 | > 100
O=C(O)[C@H]1CCC[C@H]1C(=O)N[C@@H](c1ccccc1)c1ccc(C2CC2)cc1 [Compound 38, (1S,2R)-2-(((S)-(4-cyclopropylphenyl)(phenyl)methyl)carbamoyl)cyclopentane-1-carboxylic acid] | 1.13 | –
CC(C)c1ccc([C@@H](NC(=O)[C@@H]2CCC[C@@H]2C(=O)O)c2cccc(-c3ccnn3C)c2)nc1F [Compound 1, (1S,2R)-2-(((S)-(6-fluoro-5-isopropylpyridin-2-yl)(3-(1-methyl-1H-pyrazol-5-yl)phenyl)methyl)carbamoyl)cyclopentane-1-carboxylic acid] | 1.44 | –
CC(C)c1ccc([C@@H](NC(=O)[C@@H]2CCC[C@@H]2C(=O)O)c2ccccc2NC(=O)C2CNC2)cc1 [Compound 13, (1S,2R)-2-(((R)-(2-(azetidine-3-carboxamido)phenyl)(4-isopropylphenyl)methyl)carbamoyl)cyclopentane-1-carboxylic acid] | 2.36 | > 68.6
CC(C)c1ccc([C@@H](NC(=O)[C@@H]2CCC[C@@H]2C(=O)O)c2ccccc2NC(N)=O)cc1F [Compound 24, (1S,2R)-2-(((R)-(3-fluoro-4-isopropylphenyl)(2-ureidophenyl)methyl)carbamoyl)cyclopentane-1-carboxylic acid] | 2.82 | 92
CC(C)c1ccc([C@@H](NC(=O)[C@@H]2CCC[C@@H]2C(=O)O)c2cccc(-c3ccn[nH]3)c2)nc1F [Compound 4, (1S,2R)-2-(((S)-(3-(1H-pyrazol-5-yl)phenyl)(6-fluoro-5-isopropylpyridin-2-yl)methyl)carbamoyl)cyclopentane-1-carboxylic acid] | 0.178 | –
CC(C)c1ccc([C@@H](NC(=O)[C@@H]2CCC[C@@H]2C(=O)O)c2cccc3c2NC(=O)C3)cc1 [Compound 30, (1S,2R)-2-(((R)-(4-isopropylphenyl)(2-oxoindolin-7-yl)methyl)carbamoyl)cyclopentane-1-carboxylic acid] | 1.61 | 31.3
O=C(O)[C@H]1CCC[C@H]1C(=O)N[C@@H](c1ccccc1)c1ccc(C2CC2)c(F)n1 [Compound 6, (1S,2R)-2-(((S)-(5-cyclopropyl-6-fluoropyridin-2-yl)(phenyl)methyl)carbamoyl)cyclopentane-1-carboxylic acid] | 0.272 | –
CC(C)c1ccc([C@@H](NC(=O)[C@@H]2CCC[C@@H]2C(=O)O)c2ccc3cn[nH]c3c2)nc1F [Compound 5, (1S,2R)-2-(((S)-(6-fluoro-5-isopropylpyridin-2-yl)(1H-indazol-6-yl)methyl)carbamoyl)cyclopentane-1-carboxylic acid] | 0.084 | –
CC1(C)CC2(CC([C@@H](NC(=O)C3CCCC3C(=O)O)c3ccccc3)C2)C1 (single isomer, unassigned) [Compound 35, (1S or 1R,2R or 2S)-2-(((R)-(6,6-dimethylspiro[3.3]heptan-2-yl)(phenyl)methyl)carbamoyl)cyclopentane-1-carboxylic acid] | 2.39 | –
